Reference: US9625448B2, “Double caged GABA compounds, bis-CNB-GABA” (The Trustees of Princeton University, priority 2014, dated 2017)
Entries after “also recorded” stand apart in the source; their conditions may differ. Where two headings read alike, the source gives them in different places.

Experiments:
[1] = Quantum yield of photolysis; type: physicochemical; settings: 254 nm light
Procedure: Quantum yield was a more difficult characteristic to determine. Most published routes of determining quantum yield rely on exposing the compound to a known amount of light and calculating the percent conversion of caged compound to substrate. However, this often requires laser sources and equipment beyond the scope of available facilities. Therefore, it was necessary to develop a way to assess quantum yield with a more practical method. As an alternative, quantum yield was determined by exposing a compound to light alongside a caged compound of known quantum yield. The percent conversion to product of both can be determined, and quantum yield of the unknown caged compound can be calculated using the known quantum yield of the standard.
This method was employed using single-caged CNB-GABA, with a quantum yield of 0.14 (Matsuzaki et al., 2010 Nature Chemical Biology, 6, 255-257, which is incorporated herein by reference as if fully set forth). Referring to this figure, GABA backbone is shown in light gray.
Equimolar amounts of single-caged GABA and bis-CNB-GABA were stirred in separate cuvettes in pH 7.0 phosphate buffer solution and exposed to 254 nm light for 16.5 minutes. An internal standard (1,2-dimethoxyethane) of known amount was then added to each solution, and the moles of GABA released from each compound was determined by ^1HNMR. The peaks corresponding to GABA as well as those from the internal standard were then identified and integrated. From this, moles of GABA and percent conversion were calculated for both bis-CNB-GABA and mono-CNB-GABA. FIG. 34 illustrates NMR data used to determine quantum yield. Referring to FIG. 34, the […] on the top illustrates bis-CNB-GABA before light exposure. Arrows denote methylene peaks of bis-CNB-GABA. Integrated peaks in each spectrum correspond to di-methoxyethane, used as an internal standard. […]
Quantum yield was determined by uncaging bis-CNB-GABA alongside a caged compound of known quantum yield (mono-CNB-GABA, QY=0.16, from Invitrogen). […]

physchem = type: physicochemical; settings: pH 7, aqueous buffer, thermodynamic from solid
Text: Solubility data was important to obtain before attempting to use the compound in neural tissue. This was accomplished by dissolving a known amount of bis-CNB-GABA in pH 7.0 phosphate buffer solution.

GABAA receptors = settings: cited from earlier work
dentate granule cells = system: dentate granule cells; parameters: dose or concentration left out as unconfirmed; settings: holding potential −80 mV; cited from earlier work
[2] = at 24 hr; prior report; cited from earlier work

SMILES	quantum yield ([1]; pH 7.0 phosphate buffer, relative to CNB-GABA (0.14))	quantum yield at the N-position ([1]; relative to mono-O-CNB-GABA)	quantum yield at the O-position ([1]; relative to mono-O-CNB-GABA)	solubility (physchem) [mM]	effect on GABA-evoked currents (GABAA receptors; 200 μM)	IC50 (GABAA receptors; Molnár & Nadler, 2000, read-out: IC50, suppression of GABA-evoked IPSC currents) [µM]	IC50 (GABAA receptors; Table 2, O-CNB-GABA in hippocampal dentate neurons, read-out: IC50 in blocking synaptic GABAA currents) [µM]	activity at GABA receptors before photolysis (GABAA receptors)	effect on EPSC evoked by stimulation of the perforant path (dentate granule cells)	conversion in the dark [2] [%]
O=C(CCCNC(C(=O)O)c1ccccc1[N+](=O)[O-])OC(C(=O)O)c1ccccc1[N+](=O)[O-] (stereo not shown) [bis-CNB-GABA, 2-((4-(Carboxy(2-nitrophenyl)methoxy)-4-oxobutyl)amino)-2-(2-nitrophenyl)acetic acid]	0.07	0.032	0.15	≤ 17	–	–	–	–	–	–
NCCCC(=O)OC(C(=O)O)c1ccccc1[N+](=O)[O-] (stereo not shown) [mono-CNB-GABA]	–	–	–	–	reversibly eliminated	28	28	antagonize GABA receptors; also recorded: antagonist of GABAA receptors	did not significantly affect	< 1
